Measurements reported in EPA's ToxValDB 9.5.

System: Labeo boga
Conditions: whole body
[1] = short-term, duration: 7 day, M, Medaka, liver IL-1Beta/Beta-actin mRNA ratio + liver IL-6/Beta-actin mRNA ratio
[2] = short-term, duration: 21 day, M/F, mRNA expression levels of IgM in spleen + mRNA expression levels of IL-1 beta in spleen + mRNA expression levels of myd88 in spleen

O=C([O-])C(F)(F)C(F)(F)C(F)(F)C(F)(F)C(F)(F)C(F)(F)C(F)(F)F.[NH4+] [Ammonium perfluorooctanoate]
LOEL [1]: 50 mg/L
NOEL [1]: 10 mg/L
LOEL (short-term, duration: 7 day, M, Medaka, liver TNF-alpha/Beta-actin mRNA ratio): 10 mg/L
LOEL (short-term, duration: 15 day, M/F, Medaka, c-type lysozyme mRNA expression): 1 mg/L
NOEL (short-term, duration: 15 day, M/F, Medaka, complement component C3-1 mRNA expression): 1 mg/L
LOEL (short-term, duration: 21 day, M/F, Atlantic Salmon, cortisol): 0.1 mg/L
LOEL (short-term, duration: 21 day, M/F, mRNA expression levels of IgD in spleen + mRNA expression levels of IgZ in spleen + mRNA expression levels of IL-21 in spleen + mRNA …): 0.05 mg/L
LOEL [2]: 0.1 mg/L
NOEL [2]: 0.05 mg/L
LOEL (subchronic, duration: 48 day, M/F, Atlantic Salmon, cortisol): 0.1 mg/L
NOEL (subchronic, duration: 48 day, M/F, Atlantic Salmon, fresh weight + length + thymus: thymus somatic index + thymus: thymus volume): 0.1 mg/L
LOEL (subchronic, duration: 56 day, M/F, Atlantic Salmon, cortisol): 0.1 mg/L
